Legend:
bluegrass [1] = assay: Test D preemergence; assay type: in vivo, Poa annua; conditions: Poa annua, pre-emergence, scale 0-100, read-out: Plant response rating, Bluegrass
Summary of the method: (§1)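 Values are 0–100 visual control ratings (0 none, 100 complete) given 7–21 days after application. Soil for preemergence was silt loam; postemergence plants stood 2–18 cm tall.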

blackgrass = assay: Test D preemergence; assay type: in vivo, Alopecurus myosuroides; conditions: Alopecurus myosuroides, pre-emergence, scale 0-100, read-out: Plant response rating, Blackgrass
Summary of the method: as §1

canarygrass = assay: Test D preemergence; assay type: in vivo, Phalaris minor; conditions: Phalaris minor, pre-emergence, scale 0-100, read-out: Plant response rating, Canarygrass
Summary of the method: as §1

bromegrass, downy [2] = assay: Test D preemergence; assay type: in vivo, Bromus tectorum; conditions: Bromus tectorum, pre-emergence, scale 0-100, read-out: Plant response rating, Bromegrass, Downy
Summary of the method: as §1

green foxtail = assay: Test D preemergence; assay type: in vivo, Setaria viridis; conditions: Setaria viridis, pre-emergence, scale 0-100, read-out: Plant response rating, Foxtail, Green
Summary of the method: as §1

bluegrass [3] = assay: Test D postemergence; assay type: in vivo, Poa annua; conditions: Poa annua, post-emergence, Postemergence, scale 0 to 100 (0 no effect, 100 complete control), read-out: Plant response rating, Bluegrass
Summary of the method: as §1

bromegrass, downy [4] = assay: Test D postemergence; assay type: in vivo, Bromus tectorum; conditions: Bromus tectorum, post-emergence, Postemergence, scale 0 to 100 (0 no effect, 100 complete control), read-out: Plant response rating, Bromegrass, Downy
Summary of the method: as §1

lambsquarters = assay: Test D postemergence; assay type: in vivo, Chenopodium album; conditions: Chenopodium album, post-emergence, scale 0 to 100 (0 no effect, 100 complete control), read-out: Plant response rating, Lambsquarters
Summary of the method: as §1

chamomile = assay: Test D postemergence; assay type: in vivo, Matricaria inodora; conditions: Tripleurospermum inodorum, post-emergence, scale 0 to 100 (0 no effect, 100 complete control), read-out: Plant response rating, Chamomile
Summary of the method: as §1

spring barley = assay: Test D postemergence; assay type: in vivo, Hordeum vulgare; conditions: Hordeum vulgare, post-emergence, Postemergence, scale 0 to 100 (0 no effect, 100 complete control), read-out: Plant response rating, Barley, Spring
Summary of the method: as §1

winter barley = assay: Test D postemergence; assay type: in vivo, Hordeum vulgare; conditions: Hordeum vulgare, post-emergence, Postemergence, scale 0 to 100 (0 no effect, 100 complete control), read-out: Plant response rating, Barley, Winter
Summary of the method: as §1

wild oat = assay: Test D postemergence; assay type: in vivo, Avena fatua; conditions: Avena fatua, post-emergence, scale 0 to 100 (0 no effect, 100 complete control), read-out: Plant response rating, Oat, Wild
Summary of the method: as §1

barnyardgrass = assay: Test E postemergence; assay type: in vivo, Echinochloa crus-galli; conditions: Echinochloa crus-galli, post-emergence, read-out: Plant response rating, Barnyardgrass
Summary of the method: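 Response was scored visually on a 0-100 scale (100 = complete control) versus controls after 14 to 21 days in the greenhouse. Test chemicals, formulated with surfactant in a non-phytotoxic solvent mixture, had been applied preemergence to seeds in silt loam soil or postemergence to 1- to 4-leaf plants in potting medium.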

N#Cc1cccc(Oc2ncc(Br)cn2)c1-n1cc(C(F)(F)F)cn1 [Compound 59, 3-[(5-bromo-2-pyrimidinyl)oxy]-2-[4-(trifluoromethyl)-1H-pyrazol-1-yl]benzonitrile]
pest or weed control at 31 g/ha (bluegrass [1]; 31 g ai/ha): 5%
pest or weed control at 62 g/ha (bluegrass [1]; 62 g ai/ha): 10%
pest or weed control at 125 g/ha (bluegrass [1]; 125 g ai/ha): 35%
pest or weed control at 250 g/ha (bluegrass [1]; 250 g ai/ha): 85%
pest or weed control at 31 g/ha (blackgrass; 31 g ai/ha): 25%
pest or weed control at 62 g/ha (blackgrass; 62 g ai/ha): 55%
pest or weed control at 125 g/ha (blackgrass; 125 g ai/ha): 70%
pest or weed control at 250 g/ha (blackgrass; 250 g ai/ha): 85%
pest or weed control at 31 g/ha (canarygrass; 31 g ai/ha): 5%
pest or weed control at 62 g/ha (canarygrass; 62 g ai/ha): 15%
pest or weed control at 125 g/ha (canarygrass; 125 g ai/ha): 65%
pest or weed control at 250 g/ha (canarygrass; 250 g ai/ha): 100%
pest or weed control at 31 g/ha (bromegrass, downy [2]; 31 g ai/ha): 0%
pest or weed control at 62 g/ha (bromegrass, downy [2]; 62 g ai/ha): 0%
pest or weed control at 125 g/ha (bromegrass, downy [2]; 125 g ai/ha): 10%
pest or weed control at 250 g/ha (bromegrass, downy [2]; 250 g ai/ha): 40%
pest or weed control at 31 g/ha (green foxtail; 31 g ai/ha): 35%
pest or weed control at 62 g/ha (green foxtail; 62 g ai/ha): 100%
pest or weed control at 125 g/ha (green foxtail; 125 g ai/ha): 100%
pest or weed control at 250 g/ha (green foxtail; 250 g ai/ha): 100%
pest or weed control at 31 g/ha (bluegrass [3]; 31 g ai/ha): 15%
pest or weed control at 62 g/ha (bluegrass [3]; 62 g ai/ha): 15%
pest or weed control at 125 g/ha (bluegrass [3]; 125 g ai/ha): 20%
pest or weed control at 250 g/ha (bluegrass [3]; 250 g ai/ha): 40%
pest or weed control at 31 g/ha (bromegrass, downy [4]; 31 g ai/ha): 20%
pest or weed control at 62 g/ha (bromegrass, downy [4]; 62 g ai/ha): 20%
pest or weed control at 125 g/ha (bromegrass, downy [4]; 125 g ai/ha): 25%
pest or weed control at 250 g/ha (bromegrass, downy [4]; 250 g ai/ha): 30%
pest or weed control at 31 g/ha (lambsquarters; 31 g ai/ha): 90%
pest or weed control at 62 g/ha (lambsquarters; 62 g ai/ha): 85%
pest or weed control at 125 g/ha (lambsquarters; 125 g ai/ha): 80%
pest or weed control at 250 g/ha (lambsquarters; 250 g ai/ha): 95%
pest or weed control at 31 g/ha (chamomile; 31 g ai/ha): 5%
pest or weed control at 62 g/ha (chamomile; 62 g ai/ha): 10%
pest or weed control at 125 g/ha (chamomile; 125 g ai/ha): 10%
pest or weed control at 250 g/ha (chamomile; 250 g ai/ha): 15%
plant injury at 31 g/ha (spring barley; 31 g ai/ha): 10%
plant injury at 62 g/ha (spring barley; 62 g ai/ha): 20%
plant injury at 125 g/ha (spring barley; 125 g ai/ha): 20%
plant injury at 250 g/ha (spring barley; 250 g ai/ha): 35%
plant injury at 31 g/ha (winter barley; 31 g ai/ha): 10%
plant injury at 62 g/ha (winter barley; 62 g ai/ha): 15%
plant injury at 125 g/ha (winter barley; 125 g ai/ha): 15%
plant injury at 250 g/ha (winter barley; 250 g ai/ha): 25%
pest or weed control at 31 g/ha (wild oat; 31 g ai/ha): 25%
pest or weed control at 62 g/ha (wild oat; 62 g ai/ha): 30%
pest or weed control at 125 g/ha (wild oat; 125 g ai/ha): 35%
pest or weed control at 250 g/ha (wild oat; 250 g ai/ha): 50%
pest or weed control at 31 g/ha (barnyardgrass; Postemergence, 31 g ai/ha, scale 0 to 100): 0%
pest or weed control at 62 g/ha (barnyardgrass; Postemergence, 62 g ai/ha, scale 0 to 100): 10%
pest or weed control at 125 g/ha (barnyardgrass; Postemergence, 125 g ai/ha, scale 0 to 100): 15%
pest or weed control at 250 g/ha (barnyardgrass; Postemergence, 250 g ai/ha, scale 0 to 100): 30%
pest or weed control at 16 g/ha (barnyardgrass; postemergence, 16 g ai/ha, scale 0 to 100, 0 no effect, 100 complete control): 0%
